Measured values as given in patent EP1903056A2, “HLA-A1, -A2 -A3, -A24, -B7, and -B44 tumor associated antigen peptides and compositions” (priority 2002, dated 2004).
Each block holds one compound with its values, some of them ahead of it.

Key:
B*3501 = B*3501 (Homo sapiens, UniProt P01889, A329T/A93T/A95T/C349S/D201E/D98Y/E176V/E187L/E204Q/E69T/I218V/K202T/L119I/Q94N/R155S/R180L/S121R/S35A/S48A/T118I/V127L/V306I/V36M/Y140S/Y91F); test: Class I peptide-binding assay, B*3501
B*5401 = B*5401 (Homo sapiens, UniProt P01889, A329T/C349S/D138N/D201E/E176V/E187T/E204Q/E69G/I76V/K202T/L119W/R155S/R180L/S121T/S35A/S48A/V127L/V306I/V36M/Y140L); test: Class I peptide-binding assay, B*5401; settings: Table 17a
melanoma patients = melanoma patients vaccinated with peptide-pulsed DC or the peptide alone; cited from earlier work
cervical cancer patients [1] = settings: cited from earlier work
cervical cancer patients [2] = settings: two weeks after vaccination; PBMC stimulated in vitro with 5 µg/ml PADRE peptide; proliferation index > 5; cited from earlier work
HLA-A*0101 = HLA-A*0101 (Homo sapiens, UniProt P04439, A114D/A174V/A182V/D101N/D185E/E176A/E190D/L180R/Q94H/R68K/S129P/T187R/V100A/V91M/W191G); test: Class I peptide-binding assay, A*0101; settings: Table 18a, CEA-derived A1 binders
HLA-A*2402 = HLA-A*2402 (Homo sapiens, UniProt P04439, D101N/D140Y/D185E/E176V/E190D/F33S/G103R/G107R/I119L/I121M/I306V/K335N/L105A/L180Q/L300P/N151K/N90K/Q86E/Q94H/R106L/R138H/R89G/T104I/T345S/V100E/W191G/Y123F); test: Class I peptide-binding assay, A*2402; settings: Table 19a, CEA-derived A24 binders

- IC50 (B*3501; Table 17a): 10000 nM
SMILES: CC[C@H](C)[C@H](N)C(=O)N1CCC[C@H]1C(=O)N[C@@H](Cc1c[nH]c2ccccc12)C(=O)N[C@@H](CCC(N)=O)C(=O)N[C@@H](CCCNC(=N)N)C(=O)N[C@@H](CC(C)C)C(=O)N[C@@H](CC(C)C)C(=O)N[C@@H](CC(C)C)C(=O)N[C@H](C(=O)N[C@H](C(=O)O)[C@@H](C)CC)[C@@H](C)O [CEA.13I10]

- IC50 (B*3501; Table 17a): 10000 nM
- IC50 (B*5401): 32 nM
SMILES: CC[C@H](C)[C@H](N)C(=O)N1CCC[C@H]1C(=O)N[C@@H](Cc1c[nH]c2ccccc12)C(=O)N[C@@H](CCC(N)=O)C(=O)N[C@@H](CCCNC(=N)N)C(=O)N[C@@H](CC(C)C)C(=O)N[C@@H](CC(C)C)C(=O)N[C@@H](CC(C)C)C(=O)N[C@H](C(=O)N[C@@H](C)C(=O)O)[C@@H](C)O [CEA.13]

- IC50 (B*3501; Table 17a): 10000 nM
SMILES: CC[C@H](C)[C@H](NC(=O)[C@H](CO)NC(=O)[C@H](Cc1ccc(O)cc1)NC(=O)CNC(=O)[C@H](Cc1ccccc1)NC(=O)[C@H](CC(C)C)NC(=O)[C@H](Cc1c[nH]cn1)NC(=O)[C@H](CCC(N)=O)NC(=O)[C@@H]1CCCN1C(=O)[C@@H](N)CC(C)C)C(=O)O [CEA.58I10]

- IC50 (B*3501; Table 17b): 1000 nM
SMILES: CC[C@H](C)[C@H](NC(=O)[C@@H]1CCCN1C(=O)[C@H](CC(C)C)NC(=O)[C@@H]1CCCN1C(=O)CNC(=O)[C@H](CCC(=O)O)NC(=O)[C@H](CCCNC(=N)N)NC(=O)[C@@H]1CCCN1C(=O)[C@H](CO)NC(=O)[C@@H]1CCCN1C(=O)[C@@H]1CCCN1)C(=O)O [Her2/neu.1149.I11]

SMILES: CC[C@H](C)[C@H](NC(=O)[C@@H]1CCCN1C(=O)[C@H](CC(=O)O)NC(=O)[C@@H](NC(=O)[C@@H](N)CCC(=O)O)C(C)C)C(=O)NCC(=O)N[C@@H](Cc1c[nH]cn1)C(=O)N[C@@H](CC(C)C)C(=O)N[C@@H](Cc1ccc(O)cc1)C(=O)O [MAGE3.168]
- tumor regression in vaccinated patients (melanoma patients): tumor regression was observed

SMILES: CC(C)C[C@H](NC(=O)[C@@H](NC(=O)[C@H](Cc1c[nH]c2ccccc12)NC(=O)[C@H](C)NC(=O)[C@H](C)NC(=O)[C@@H](NC(=O)[C@H](CC1CCCCC1)NC(=O)[C@H](CCCCN)NC(=O)[C@@H](C)N)C(C)C)[C@@H](C)O)C(=O)N[C@@H](CCCCN)C(=O)N[C@@H](C)C(=O)N[C@@H](C)C(=O)N[C@H](C)C(N)=O [PADRE, aKXVAAWTLKAAa-NH2]
- responding patients (cervical cancer patients [1]; 95% interval 10-65%): 33%
- safety in trial (cervical cancer patients [1]; patients with recurrent or residual cervical carcinoma): favorable safety profile

SMILES: CC(C)C[C@H](NC(=O)[C@@H](NC(=O)[C@H](Cc1c[nH]c2ccccc12)NC(=O)[C@H](C)NC(=O)[C@H](C)NC(=O)[C@@H](NC(=O)[C@H](CC1CCCCC1)NC(=O)[C@H](CCCCN)NC(=O)[C@@H](C)N)C(C)C)[C@@H](C)O)C(=O)N[C@@H](CCCCN)C(=O)N[C@@H](C)C(=O)N[C@@H](C)C(=O)N[C@H](C)C(N)=O [aKXVAAWTLKAAa-NH2]
- patients displaying PADRE-specific proliferation (cervical cancer patients [2]): 4/12

- IC50 (HLA-A*0101): 641 nM
SMILES: CC[C@H](C)[C@H](N)C(=O)N[C@H](C(=O)N[C@@H](CCC(=O)O)C(=O)N[C@@H](CCCCN)C(=O)N[C@@H](CC(N)=O)C(=O)N[C@@H](CO)C(=O)NCC(=O)N[C@@H](CC(C)C)C(=O)N[C@@H](Cc1ccc(O)cc1)C(=O)O)[C@@H](C)O [compound 179]

- IC50 (HLA-A*2402): 1460 nM
SMILES: CC(C)C[C@H](NC(=O)[C@H](CO)NC(=O)[C@H](CCC(N)=O)NC(=O)CNC(=O)[C@H](CC(N)=O)NC(=O)[C@@H](NC(=O)[C@H](Cc1c[nH]c2ccccc12)NC(=O)[C@H](Cc1c[nH]c2ccccc12)NC(=O)[C@@H](N)CC(C)C)C(C)C)C(=O)O [compound 283]
